Where “and” joins values, the source holds several entries; their conditions need not be identical. Equal entries are not always repeated. Inconclusive results and toxic doses are left out. The calls were made as follows: active = survival T/C of 150% or more; inactive = T/C below 125% in these data.
Tested on: P388 leukemia ip, CD2F1 mice, survival T/C
Experiment: NCI In Vivo Anticancer Drug Screen. Data for tumor model P388 Leukemia (intraperitoneal) in CD2F1 (CDF1) mice
Details: endpoint: median survival time, higher = longer survival
How it was run: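 Mice carrying the transplanted tumor received test compound or vehicle. Survival was recorded in each group, and the value is the treated-group measurement divided by that of the vehicle-treated control group.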

[1] = dose: 25.0 mg/kg/injection, schedule: Q01DX009 (ip), vehicle: saline with Tween-80
[2] = dose: 50.0 mg/kg/injection, schedule: Q01DX009 (ip), vehicle: saline with Tween-80
[3] = dose: 100.0 mg/kg/injection, schedule: Q01DX009 (ip), vehicle: saline with Tween-80
[4] = dose: 200.0 mg/kg/injection, schedule: Q01DX009 (ip), vehicle: saline with Tween-80

Measured: T/C

CC1(C)C2CCC(C2)C1OC(=O)c1ccccc1C(=O)O (stereo unspecified)
inactive: dose: 60.0 mg/kg/injection, schedule: Q01DX005 (ip), vehicle: saline with Tween-80 99 % of control | dose: 120.0 mg/kg/injection, schedule: Q01DX005 (ip), vehicle: saline with Tween-80 98 % of control | dose: 240.0 mg/kg/injection, schedule: Q01DX005 (ip), vehicle: saline with Tween-80 104 % of control

CNC(=O)/C=C/C1=CN2C(=O)c3ccc(C)c(O)c3NC(OC)C2C1 (stereo unspecified)
inactive: dose: 0.01 mg/kg/injection, schedule: Q01DX009 (ip), vehicle: suspension in saline 102 % of control and 115 % of control | dose: 0.02 mg/kg/injection, schedule: Q01DX009 (ip), vehicle: suspension in saline 116 % of control | dose: 0.05 mg/kg/injection, schedule: Q01DX009 (ip), vehicle: saline 121 % of control | dose: 0.05 mg/kg/injection, schedule: Q01DX009 (ip), vehicle: suspension in saline 120 % of control | dose: 0.2 mg/kg/injection, schedule: Q01DX009 (ip), vehicle: saline 92 % of control | dose: 0.2 mg/kg/injection, schedule: Q01DX009 (ip), vehicle: suspension in saline 97 % of control

COC(=O)CCC1=C(C)c2cc3[nH]c(cc4[nH]c(cc5nc(cc1n2)C(CCC(=O)OC)=C5C)c(C#N)c4C)c(C#N)c3C
inactive: dose: 50.0 mg/kg/injection, schedule: Q01DX005 (ip), vehicle: Klucel (hydroxypropylcellulose) (HPC) 104 % of control | dose: 100.0 mg/kg/injection, schedule: Q01DX005 (ip), vehicle: Klucel (hydroxypropylcellulose) (HPC) 95 % of control | dose: 200.0 mg/kg/injection, schedule: Q01DX005 (ip), vehicle: Klucel (hydroxypropylcellulose) (HPC) 100 % of control

CCC(N)Cc1cc(OC)c(C)cc1OC (stereo unspecified)
inactive: [1] 90 % of control | [2] 98 % of control and 99 % of control | [3] 103 % of control

Cc1ccc(C(=O)CC2=NC3NN(c4ccccc4)C(=O)C3=C2CC(=O)c2ccc(C)cc2)cc1 (stereo unspecified)
inactive: dose: 60.0 mg/kg/injection, schedule: Q01DX005 (ip), vehicle: suspension in saline 94 % of control | dose: 120.0 mg/kg/injection, schedule: Q01DX005 (ip), vehicle: suspension in saline 98 % of control | dose: 240.0 mg/kg/injection, schedule: Q01DX005 (ip), vehicle: suspension in saline 102 % of control

CC(=N/NC(=S)NCCN1CCCC1)/C(C)=N\NC(=S)NCCN1CCCC1
inactive: dose: 6.25 mg/kg/injection, schedule: Q04DX003 (ip), vehicle: saline with Tween-80 117 % of control | dose: 12.5 mg/kg/injection, schedule: Q04DX003 (ip), vehicle: saline with Tween-80 98 % of control | dose: 25.0 mg/kg/injection, schedule: Q04DX003 (ip), vehicle: saline with Tween-80 100 % of control

CCN(CC)c1nc(N(CC)CC)nc(N(CC)CC)n1
inactive: [1] 102 % of control | [2] 104 % of control | [3] 104 % of control | [4] 104 % of control

CC(C)C(C)C(O)C(O)C(C)C1CCC2C3COC(=O)C4CC(O)C(O)CC4(C)C3CCC12C (stereo unspecified)
inactive: dose: 0.75 mg/kg/injection, schedule: Q01DX009 (ip), vehicle: saline with Tween-80 106 % of control | dose: 1.05 mg/kg/injection, schedule: Q01DX009 (ip), vehicle: saline with Tween-80 98 % of control | dose: 1.5 mg/kg/injection, schedule: Q01DX009 (ip), vehicle: saline with Tween-80 112 % of control | dose: 2.1 mg/kg/injection, schedule: Q01DX009 (ip), vehicle: saline with Tween-80 103 % of control | dose: 3.0 mg/kg/injection, schedule: Q01DX009 (ip), vehicle: saline with Tween-80 99 % of control | dose: 4.2 mg/kg/injection, schedule: Q01DX009 (ip), vehicle: saline with Tween-80 100 % of control | dose: 6.0 mg/kg/injection, schedule: Q01DX009 (ip), vehicle: saline with Tween-80 103 % of control

OCCN(CCO)Cc1nc2ccccc2[nH]1
inactive: dose: 50.0 mg/kg/injection, schedule: Q01DX005 (ip), vehicle: saline 104 % of control | dose: 100.0 mg/kg/injection, schedule: Q01DX005 (ip), vehicle: saline 99 % of control | dose: 200.0 mg/kg/injection, schedule: Q01DX005 (ip), vehicle: saline 101 % of control

Nc1[nH]nc2nc(-c3ccc(Cl)cc3)cnc12
inactive: dose: 50.0 mg/kg/injection, schedule: Q04DX003 (ip), vehicle: saline with Tween-80 100 % of control | dose: 100.0 mg/kg/injection, schedule: Q04DX003 (ip), vehicle: saline with Tween-80 100 % of control | dose: 200.0 mg/kg/injection, schedule: Q04DX003 (ip), vehicle: saline with Tween-80 100 % of control

Nn1c(=S)[nH]nc(/C=C/c2ccc3c(c2)OCO3)c1=O
inactive: [2] 89 % of control | [3] 91 % of control | [4] 98 % of control

Source: PubChem BioAssay AID330 (DTP/NCI, 2004)
